Laboratory results: the supplement of paper PMC10307832

Legend:
Assay in all cases: relative viability (nuclei count vs DMSO), 5 days (fraction); higher = more cells survive
Omipalisib = compound: COc1ncc(-c2ccc3nccc(-c4ccnnc4)c3c2)cc1NS(=O)(=O)c1ccc(F)cc1F [Omipalisib]
Summary of the method: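 Viability here means nuclei in treated wells divided by nuclei in vehicle wells, reported as the median across plates. Only plates with control CV below 25% and at least one doubling passed. Lung cancer cell lines in 1536-well plates were exposed to five √10-spaced library-drug doses for 5 days and counted from 4× Hoechst images in MetaXpress.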

Omipalisib + AZD7762 = compound: COc1ncc(-c2ccc3nccc(-c4ccnnc4)c3c2)cc1NS(=O)(=O)c1ccc(F)cc1F [Omipalisib] + NC(=O)Nc1cc(-c2cccc(F)c2)sc1C(=O)N[C@H]1CCCNC1 [AZD7762] (partner 0.2 µM)
Summary of the method: (§1)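 After 5 days of treatment, lung cancer cells in 1536-well plates were fixed and stained in a single step (final 0.05% Triton X-100, 1% formaldehyde, 1 ug/ml Hoechst) and their nuclei counted on 4× images. Treatment had been applied by pin tool the day after seeding as one drug alone or as a fixed anchor-drug dose with five library-drug doses (not always all listed) in √10 steps. Relative viability is the nuclei count of treated wells divided by that of vehicle wells, and values are medians of duplicate plates.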

Omipalisib + Olaparib = compound: COc1ncc(-c2ccc3nccc(-c4ccnnc4)c3c2)cc1NS(=O)(=O)c1ccc(F)cc1F [Omipalisib] + O=C(c1cc(Cc2n[nH]c(=O)c3ccccc23)ccc1F)N1CCN(C(=O)C2CC2)CC1 [Olaparib] (partner 8 µM)
Summary of the method: as §1

Omipalisib + Linsitinib = compound: COc1ncc(-c2ccc3nccc(-c4ccnnc4)c3c2)cc1NS(=O)(=O)c1ccc(F)cc1F [Omipalisib] + C[C@]1(O)C[C@@H](c2nc(-c3ccc4ccc(-c5ccccc5)nc4c3)c3c(N)nccn32)C1 [Linsitinib] (partner 1 µM)
Summary of the method: as §1

Omipalisib + Vorinostat = compound: COc1ncc(-c2ccc3nccc(-c4ccnnc4)c3c2)cc1NS(=O)(=O)c1ccc(F)cc1F [Omipalisib] + O=C(CCCCCCC(=O)Nc1ccccc1)NO [Vorinostat] (partner 1 µM)
Summary of the method: as §1

Omipalisib + Phenformin = compound: COc1ncc(-c2ccc3nccc(-c4ccnnc4)c3c2)cc1NS(=O)(=O)c1ccc(F)cc1F [Omipalisib] + N=C(N)NC(=N)NCCc1ccccc1 [Phenformin] (partner 250 µM)
Summary of the method: as §1

| Cell Line | relative viability (Omipalisib; 0.0003 µM) | relative viability (Omipalisib; 0.003 µM) | relative viability (Omipalisib; 0.03 µM) | relative viability (Omipalisib + AZD7762; first compound 0.0003 µM) | relative viability (Omipalisib + AZD7762; first compound 0.003 µM) | relative viability (Omipalisib + AZD7762; first compound 0.03 µM) | relative viability (Omipalisib + Olaparib; first compound 0.0003 µM) | relative viability (Omipalisib + Olaparib; first compound 0.003 µM) | relative viability (Omipalisib + Olaparib; first compound 0.03 µM) | relative viability (Omipalisib + Linsitinib; first compound 0.0003 µM) | relative viability (Omipalisib + Linsitinib; first compound 0.003 µM) | relative viability (Omipalisib + Linsitinib; first compound 0.03 µM) | relative viability (Omipalisib + Vorinostat; first compound 0.0003 µM) | relative viability (Omipalisib + Vorinostat; first compound 0.003 µM) | relative viability (Omipalisib + Vorinostat; first compound 0.03 µM) | relative viability (Omipalisib + Phenformin; first compound 0.0003 µM) | relative viability (Omipalisib + Phenformin; first compound 0.003 µM) | relative viability (Omipalisib + Phenformin; first compound 0.03 µM) |
| --- | --- | --- | --- | --- | --- | --- | --- | --- | --- | --- | --- | --- | --- | --- | --- | --- | --- | --- |
| NCI-H2087 | 1.02 | 0.723 | 0.504 | 1.29 | 1.55 | 0.772 | 0.602 | 0.344 | 0.291 | 1.15 | 0.909 | 0.854 | 0.683 | 0.549 | 0.29 | 0.43 | 0.267 | 0.289 |
| NCI-H1734 | 0.918 | 0.648 | 0.397 | 0.495 | 0.321 | 0.201 | 0.56 | 0.364 | 0.226 | 0.731 | 0.484 | 0.359 | 0.683 | 0.466 | 0.35 | 0.341 | 0.265 | 0.183 |
| EMC-BAC-2 | 0.848 | 0.613 | 0.549 | 0.989 | 0.719 | 0.515 | 0.391 | 0.407 | 0.252 | 0.797 | 0.693 | 0.438 | 0.382 | 0.317 | 0.298 | 0.476 | 0.368 | 0.334 |
| LU99A | 0.936 | 0.847 | 0.395 | 0.291 | 0.265 | 0.165 | 0.271 | 0.27 | 0.214 | 0.484 | 0.382 | 0.261 | 0.441 | 0.353 | 0.228 | 0.802 | 0.695 | 0.578 |
| NCI-H1793 | 0.74 | 0.514 | 0.317 | 0.402 | 0.215 | 0.263 | 0.576 | 0.368 | 0.196 | 0.648 | 0.416 | 0.288 | 0.649 | 0.438 | 0.231 | 0.372 | 0.22 | 0.188 |
| NCI-H3122 | 0.971 | 0.956 | 0.538 | 1.01 | 0.613 | 0.432 | 0.696 | 0.585 | 0.356 | 1.11 | 0.699 | 0.392 | 0.752 | 0.713 | 0.399 | 0.371 | 0.459 | 0.314 |
